# Source: patent publication US20050009789A1, “Cyclooxygenase inhibition with nitroxyl” (The Government of the USA as represented by the Secretary …, priority 2003, published 2005)
# Values joined by “and” are separate entries in the source; they are usually repeats but may differ in a detail not shown here. Identical values can stand only once.
# Key:
# COX-1 = molecular target: T1, COX-1 (Ovis aries, UniProt P05979); assay: COX-1 inhibition, prostaglandin (PGF2α) enzyme immunoassay; type: biochemical
# T1 construct: purchased Cayman Chemical #560101
# T1 sequence (P05979 25-600): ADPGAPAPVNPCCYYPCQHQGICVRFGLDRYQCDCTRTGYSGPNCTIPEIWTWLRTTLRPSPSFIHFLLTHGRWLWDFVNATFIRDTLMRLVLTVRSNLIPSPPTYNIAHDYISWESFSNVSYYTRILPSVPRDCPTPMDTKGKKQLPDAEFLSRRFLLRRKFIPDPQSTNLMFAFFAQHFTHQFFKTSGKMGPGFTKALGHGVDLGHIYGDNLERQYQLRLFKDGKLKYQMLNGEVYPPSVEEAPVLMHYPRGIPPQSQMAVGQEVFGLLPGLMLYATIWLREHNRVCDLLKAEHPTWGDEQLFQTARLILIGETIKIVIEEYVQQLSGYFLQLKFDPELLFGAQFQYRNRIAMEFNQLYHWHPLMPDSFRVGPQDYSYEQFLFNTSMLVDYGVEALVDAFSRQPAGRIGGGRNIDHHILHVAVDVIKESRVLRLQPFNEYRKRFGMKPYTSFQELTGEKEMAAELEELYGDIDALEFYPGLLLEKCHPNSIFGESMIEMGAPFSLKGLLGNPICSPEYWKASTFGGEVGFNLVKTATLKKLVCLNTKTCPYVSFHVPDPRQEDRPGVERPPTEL
# From the text: (§1) In some cases, screening in the latter method (measuring prostaglandin production) is accomplished using an enzyme immunoassay (EIA) where COX systems include COX-1 or COX-2, an EIA reaction buffer, Heme, and either a control solution, such as NaOH, for control systems or inhibitor solutions of the nitroxyl donor in NaOH having a range of progressively increasing concentrations of the nitroxyl-donating compound. These systems are reacted with arachidonic acid for a period typically of about five to ten minutes. The COX reactions are stopped in each system, for example, by the addition of hydrochloric acid (HCl).
# (§2) The relative amounts prostaglandins, such as PGF2α, in each system are measured with an EIA kit. The EIA measures the amounts of prostaglandins in the systems based on binding to an assay antibody. Binding is determined by absorbance, for example, absorbance at 405 nm, with a plate reader, such as a Perkin Elmer plate reader. High binding results in low absorbance indicating low inhibition, while low binding results in high absorbance indicating high inhibition.
# (§3) Once the inhibitor and control systems are prepared they are diluted in the EIA buffer at various dilution ratios, such as 1:1000, 1:2000, and 1:4000 and added to wells of the plate. The plate also contains prostaglandin (PG) standard systems, non-specific binding (NSB) systems, background COX systems, and zero binding (B0) systems, which are used to calibrate the EIA. PG standard systems are prepared at various progressively increasing concentrations of PG, for example 15.6, 31.3, 62.5, 125, 250, 500, 1000, and 2000 PG/mL. Background COX systems contain either boiled COX-1 or COX-2 diluted in EIA reaction buffer. NSB, and B0 systems include only the EIA buffer. Prostaglandin screening acetylcholinase tracer (reconstituted in the EIA buffer) is added to each system. Prostaglandin screening antiserum (reconstituted in the EIA buffer) is added to each system other than the NSB system. Typically, the plate is incubated from several hours to a day, such as from 4 to 24 hours at room temperature (about 22° C.). Ellman's reagent is added to each system in each well and the plate is agitated, such as on an orbital shaker, and protected from light, for example by covering with aluminum foil, for about an hour. The plate is then read on a plate reader, such as a Perkin Elmer plate reader.
# (§4) An average value for the absorbance of the NSB systems is determined and this absorbance is used to correct the reading of other systems for NSB (by subtracting the average NSB absorbance). An average value for the absorbance of background COX also is determined and absorbance is later used to correct other systems for background COX levels.
# (§5) An average value for B0 is obtained and NSB corrected. Average values for absorbance of each PG standard system are obtained and NSB corrected. The percentage of prostanoid binding is determined by dividing the average NSB corrected absorbance (binding (B)) for each PG standard system by the average NSB corrected absorbance for B0 systems (percentage equals B/B0*100). A standard curve is prepared with % B/B0 on the y axis and the prostaglandin concentration (PG/mL) on the x axis. Then the average % B/B0 for the background, control, and inhibitor systems are determined for each concentration tested. The PG concentration for each of these systems is determined by finding the point on the standard curve that corresponds to the determined % B/B0, determining the corresponding PG concentration on the x axis, and multiplying this concentration by the dilution factor used to prepare the system. To correct for background COX the PG concentration of the background COX-1 or COX-2 systems are subtracted from the COX-1 and COX-2 inhibitor and control systems, respectively. The percentage of inhibition is determined dividing the PG concentration for inhibitor systems by the PG concentration for control systems and multiplying by 100. […]
# COX-2 = molecular target: T2, COX-2 (Ovis aries, UniProt P79208); assay: COX-2 inhibition, prostaglandin (PGF2α) enzyme immunoassay; type: biochemical
# T2 construct: purchased Cayman Chemical #560101
# T2 sequence (P79208 17-603): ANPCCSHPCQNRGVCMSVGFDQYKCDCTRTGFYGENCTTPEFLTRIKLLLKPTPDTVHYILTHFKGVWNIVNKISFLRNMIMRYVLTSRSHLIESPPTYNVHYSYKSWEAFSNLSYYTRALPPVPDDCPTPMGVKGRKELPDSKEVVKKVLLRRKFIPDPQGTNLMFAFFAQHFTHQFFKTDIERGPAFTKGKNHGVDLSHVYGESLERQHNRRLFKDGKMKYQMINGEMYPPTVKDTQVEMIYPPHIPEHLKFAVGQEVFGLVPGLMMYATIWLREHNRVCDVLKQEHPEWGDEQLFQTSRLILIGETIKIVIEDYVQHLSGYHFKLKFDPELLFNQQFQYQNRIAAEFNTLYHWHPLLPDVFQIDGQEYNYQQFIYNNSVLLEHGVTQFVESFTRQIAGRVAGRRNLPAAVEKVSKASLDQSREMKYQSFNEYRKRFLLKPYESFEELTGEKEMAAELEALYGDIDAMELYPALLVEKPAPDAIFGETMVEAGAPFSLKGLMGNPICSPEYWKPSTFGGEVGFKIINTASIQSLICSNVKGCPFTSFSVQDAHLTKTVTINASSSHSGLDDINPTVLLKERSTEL
# From the text: as §1, §2, §3, §4, §5
# Nitroxyl donation pH = type: physicochemical
# From the text: “Nitroxyl donation pH” is the pH at which and above which a nitroxyl-donating compounds donates nitroxyl.
# Further, compounds are easily tested for nitroxyl donation with routine experiments. Although it is impractical to directly measure whether nitroxyl is donated, several tests are accepted for determining whether a compound donates nitroxyl. For example, the compound of interest can be placed in solution, for example in water, in a sealed container. After sufficient time for disassociation has elapsed, such as from several minutes to several hours, the headspace gas is withdrawn and analyzed to determine its composition, such as by gas chromatography and/or mass spectroscopy. […] Nitroxyl donation also can be detected by exposing the target donor to metmyoglobin (Mb^3+). Nitroxyl reacts with Mb^3+ to form an Mb^2+—NO complex, which can be detected by changes in the ultraviolet/visible spectrum or by Electron Paramagnetic Resonance (EPR). […]
# Testing for nitroxyl donation in some cases is performed at a range of pHs to determine the nitroxyl donation pH of the nitroxyl-donating compound. […] After the lowest pH at which nitroxyl donation occurs in a first set of tests is found, additional tests can be performed with narrower ranges of pH around the first determined nitroxyl donation pH to obtain a more specific nitroxyl donation pH. […]
# [1] = Example 1, Angeli's salt concentration 0.001 μM, 1:2000 dilution
# [2] = Example 1, Angeli's salt concentration 1.0 μM, 1:2000 dilution
# [3] = Example 1, Angeli's salt concentration 10.0 μM, 1:2000 dilution
# [4] = Example 1, Angeli's salt concentration 500.0 μM, 1:2000 dilution
# [5] = Example 2, Angeli's salt concentration 0.100 μM, data below about 50 μM called unreliable
# [6] = Example 2, Angeli's salt concentration 100.0 μM
# [7] = Example 2, Angeli's salt concentration 500.0 μM
# [8] = Example 2, Angeli's salt concentration 1000.0 μM
# [9] = Example 3, nitroxyl donor concentration 25 μM
# [10] = Example 3, nitroxyl donor concentration 50 μM
# [11] = Example 3, nitroxyl donor concentration 75 μM
# [12] = Example 3, nitroxyl donor concentration 100 μM
# [13] = Example 3, nitroxyl donor concentration 1000 μM
smiles,measurement,setting,value
"[Na+].[Na+].[O-][N+]([O-])=NO [Angeli's salt, Na2ON(O)NO]",IC50,"COX-1; Example 1, read from FIG. 1",~600 µM
same,Percentage COX-1 Inhibition,COX-1; [1],0.0%
same,Percentage COX-1 Inhibition,COX-1; [2],0.0%
same,Percentage COX-1 Inhibition,COX-1; [3],0.0%
same,Percentage COX-1 Inhibition,"COX-1; Example 1, Angeli's salt concentration 100.0 μM, 1:2000 dilution",18.3%
same,Percentage COX-1 Inhibition,COX-1; [4],40.2%
same,Percentage COX-1 Inhibition,"COX-1; Example 1, Angeli's salt concentration 1000.0 μM, 1:2000 dilution",95.4%
same,COX-1 activity inhibited,"COX-1; Example 1, concentrations from about 50 μM to about 100 μM",≤ 19%
same,IC50,"COX-1; Example 2, reasonable estimate",200 to 250 µM
same,Percentage COX-1 Inhibition,"COX-1; Example 2, Angeli's salt concentration 0.001 μM, data below about 50 μM called unreliable",97.5%
same,Percentage COX-1 Inhibition,COX-1; [5],24.7%
same,Percentage COX-1 Inhibition,"COX-1; Example 2, Angeli's salt concentration 1.0 μM, data below about 50 μM called unreliable",57.5%
same,Percentage COX-1 Inhibition,"COX-1; Example 2, Angeli's salt concentration 50.0 μM",16.4%
same,Percentage COX-1 Inhibition,COX-1; [6],45.7%
same,Percentage COX-1 Inhibition,COX-1; [7],62.5%
same,Percentage COX-1 Inhibition,COX-1; [8],68.6%
same,COX-1/COX-2 IC50 ratio,COX-2; Example 1,about 0.08
same,IC50,"COX-2; Example 1, read from FIG. 1",~50 µM
same,Percentage COX-2 inhibition,COX-2; [1],0.0%
same,Percentage COX-2 inhibition,COX-2; [2],34.6%
same,Percentage COX-2 inhibition,COX-2; [3],28.8%
same,Percentage COX-2 inhibition,"COX-2; Example 1, Angeli's salt concentration 100.0 μM, 1:2000 dilution, 100 µM",100% and 99.2%
same,Percentage COX-2 inhibition,COX-2; [4],86.4%
same,IC50,"COX-2; Example 2, reasonable estimate",~50 µM
same,Percentage COX-2 inhibition,COX-2; [5],98.9%
same,Percentage COX-2 inhibition,COX-2; [6],98%
same,Percentage COX-2 inhibition,COX-2; [7],105.7%
same,Percentage COX-2 inhibition,COX-2; [8],106%
same,Percentage COX-2 inhibition,COX-2; [9],5.4%
same,Percentage COX-2 inhibition,COX-2; [10],13.7%
same,Percentage COX-2 inhibition,COX-2; [11],49.2%
same,Percentage COX-2 inhibition,COX-2; [12],59.9%
same,Percentage COX-2 inhibition,COX-2; [13],60.4%
same,COX-2/COX-1 IC50 ratio,COX-2; one particular example (detailed description),about 0.08
same,nitroxyl donation pH (pH at which and above which nitroxyl is donated),Nitroxyl donation pH,about 3
"CC(C)N[N+]([O-])=N[O-].[Na+] [IPA/NO, Na(CH3)2C(H)N(H)N(O)NO]","COX-2 inhibition, overall trend compared to Angeli's salt","COX-2; Example 3, 25 to 1000 μM",more effective inhibitor of COX-2 than Angeli's salt
same,Percentage COX-2 inhibition,COX-2; [9],6.7%
same,Percentage COX-2 inhibition,COX-2; [10],59.5%
same,Percentage COX-2 inhibition,COX-2; [11],46.4%
same,Percentage COX-2 inhibition,COX-2; [12],62.2%
same,Percentage COX-2 inhibition,COX-2; [13],86.8%
same,nitroxyl donation pH (pH at which and above which nitroxyl is donated),Nitroxyl donation pH,about 5.5
